Assay results from publication PMC12216181 (Nature Communications, 2025).

How the values were obtained:
[1] = Drug concentration in the spinal cord by LC-MS/MS; type: in vivo, Swiss Webster mouse pups; details: Swiss Webster, mouse, ip, 50 mg/kg, one hour after the intraperitoneal injection
[2] = test system: EV-D68 US/MO/14-18947 passaged viruses; assay: Serial passage experiment 1: drug sensitivity of passaged viruses; type: cell-based, Enterovirus D68; details: Enterovirus D, CPE assay
[3] = Tolerability in uninfected Jun6504-treated mice; type: in vivo; details: 50 mg/kg dose, uninfected treated animals
EV-D68 US/MO/14-18947 [4] = assay: Plaque assay, EV-D68 US/MO/14-18947 in RD cells; type: cell-based; details: Enterovirus D, EVD68, RD
EV-D68 US/MO/14-18947 [5] = assay: Time-of-addition experiment, single cycle of EV-D68 replication in RD cells; type: cell-based, Enterovirus D68; details: 3 µM
EV-A71 Tainan/4643/1998 = assay: Plaque assay, EV-A71 Tainan/4643/1998; type: cell-based; details: Enterovirus A, EVA71, plaque assay
EV-D68 US/IL/14-18952 = assay: EV-D68 infection neonatal mouse model; type: in vivo, Swiss Webster mice; details: for Weight at DPI14: 50 mg/kg i.p. daily
EV-D68 [6] = assay: IHC staining of spinal cord sections of EV-D68-infected mice; type: in vivo, Swiss Webster pups; details: 8 DPI, 24-h delayed treatment model
EV-D68 [7] = details: AG129 mice; cited from earlier work
EV-D68 [8] = details: EV-D68 infection neonatal mouse model; cited from earlier work
EV-D68-associated AFM = details: patients with EV-D68-associated AFM; cited from earlier work
EV-D68 [9] = details: EV-D68 animal infection models; cited from earlier work

CC(C)n1ncc2c(C(=O)NCC3(C)CNC3)cc(C3CC3)nc21 [Jun6504]
concentration at 1 h [1]: ~575 ng/g | EC50 ([2]; EVD68, P3 virus, selection pressure 400 nM): 0.8 µM | EC50 ([2]; EVD68, P6 virus, selection pressure 3.2 μM): 3.38 µM | tolerability [3]: no signs of pain, weight loss, or death were observed | EC50 (EV-D68 US/MO/14-18947 [4]): 0.13 µM | effect on antiviral potency (EV-D68 US/MO/14-18947 [5]; added at 5 hpi): significant reduction in the antiviral potency | effect on efficacy (EV-D68 US/MO/14-18947 [5]; added at 7 hpi): almost complete loss of efficacy | effect on EV-D68 amplification (EV-D68 US/MO/14-18947 [5]; added before or at 3 h post-infection): completely inhibited EV-D68 amplification | EC50 (EV-A71 Tainan/4643/1998): 0.22 µM | Weight at DPI14 (EV-D68 US/IL/14-18952; 24-h delayed treatment model, control 8.65 ± 0.23 g): 9.59 ± 0.27 g | Viral titer in spinal cord (EV-D68 US/IL/14-18952; DPI5 after 4 daily doses, 24-h delayed model, control 19,834 ± 11,519): 4520 ± 1796 TCID50 | Weight at DPI14 (EV-D68 US/IL/14-18952; immediate treatment model, control 7.92 ± 0.46 g): 9.29 ± 0.14 g | EV-D68-infected (NeuN+) neurons in the cervical enlargement (EV-D68 [6]): no infected (NeuN+) neurons were observed | ChAT-positive motor neurons in lumbar spinal cord (EV-D68 [6]; treated animals with paralysis score 0): many ChAT-positive motor neurons present

CC(C)S(=O)(=O)n1c(N)nc2ccc(/C(=N/O)c3ccccc3)cc21 [enviroxime]
therapeutic efficacy (EV-D68 [7]): no therapeutic efficacy

CNCCC(Oc1ccc(C(F)(F)F)cc1)c1ccccc1 (stereo not shown) [fluoxetine]
effect on motor impairment and viral titers (EV-D68 [8]): did not reduce motor impairment or viral titers in the muscle and spinal cord | neurological outcomes (EV-D68-associated AFM): failed to improve neurological outcomes

N=C(N)N [guanidine]
in vivo antiviral activity (EV-D68 [9]): have shown in vivo antiviral activity

CCOC(=O)c1ccc(OCCC2CCN(c3ccc(C)nn3)CC2)cc1 [pirodavir]
therapeutic efficacy (EV-D68 [7]): no therapeutic efficacy

Cc1cc(CCCOc2c(C)cc(-c3noc(C(F)(F)F)n3)cc2C)on1 [pleconaril]
therapeutic efficacy (EV-D68 [7]): no therapeutic efficacy

NC(=O)c1ncn([C@@H]2O[C@H](CO)[C@@H](O)[C@H]2O)n1 [ribavirin]
therapeutic efficacy (EV-D68 [7]): no therapeutic efficacy

CCOC(=O)/C=C/[C@H](C[C@@H]1CCNC1=O)NC(=O)[C@@H](CC(=O)[C@@H](NC(=O)c1cc(C)on1)C(C)C)Cc1ccc(F)cc1 [rupintrivir]
therapeutic efficacy (EV-D68 [7]): no therapeutic efficacy
